The assay has as its target T1, CHK2 (Homo sapiens, UniProt O96017).
T1 construct: made in house
The experiment in a line: CHK2 kinase activity assay (DELFIA, phosphorylation of a CDC25C peptide). The assay is classed as biochemical. To be noted: ATP 30 μM, CHK2 1 nM, read-out: IC50, inhibition of CHK2 kinase activity in vitro.

SMILES strings stand for the structures. Where “and” joins values, the source holds several entries; their conditions need not be identical. Identical values can stand only once. Like-named read-outs stand apart in the source and are kept apart here.

T1 sequence (O96017 whole entry): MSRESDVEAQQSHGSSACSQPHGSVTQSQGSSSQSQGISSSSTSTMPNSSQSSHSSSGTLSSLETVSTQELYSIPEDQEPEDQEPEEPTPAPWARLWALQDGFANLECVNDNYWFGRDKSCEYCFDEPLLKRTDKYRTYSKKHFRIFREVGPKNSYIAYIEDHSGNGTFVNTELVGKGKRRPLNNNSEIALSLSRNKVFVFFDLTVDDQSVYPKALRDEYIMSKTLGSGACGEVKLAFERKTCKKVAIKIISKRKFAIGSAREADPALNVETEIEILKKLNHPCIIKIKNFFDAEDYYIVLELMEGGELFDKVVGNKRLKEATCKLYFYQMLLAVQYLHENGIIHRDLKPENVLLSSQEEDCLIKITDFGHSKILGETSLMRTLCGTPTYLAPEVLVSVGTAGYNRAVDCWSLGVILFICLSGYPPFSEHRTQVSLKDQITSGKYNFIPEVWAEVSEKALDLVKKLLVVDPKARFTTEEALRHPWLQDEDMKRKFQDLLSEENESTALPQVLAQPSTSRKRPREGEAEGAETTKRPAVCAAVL

Consider `Oc1ccc(Cl)cc1-c1nc(N[C@@H]2CNC[C@H]2c2ccccc2)c2ccccc2n1` (relative stereo) [Compound A-063, 4-Chloro-2-(4-(trans-4-phenylpyrrolidin-3-ylamino)quinazolin-2-yl)phenol], for which, for the setting “following further studies”, the IC50 (as a rule, the concentration that inhibits the measured activity by half) is 0.3 to 3 µM.
On to `Oc1ccc(F)cc1-c1nc(N[C@@H]2CNC[C@H]2c2cccc(Cl)c2)c2ccccc2n1` (relative stereo) [Compound A-083], for which the IC50 (following further studies) fell in the range of 0.3 to 3 µM.
For the compound `O=C(O)[C@@H]1CNC[C@H]1Nc1nc(-c2cc(F)ccc2O)nc2ccccc12` (relative stereo) [Compound A-089, trans-4-(2-(5-Fluoro-2-hydroxyphenyl)quinazolin-4-ylamino)pyrrolidine-3-carboxylic acid], where the note is “following further studies”, the half-maximal inhibitory concentration (IC50) fell in the range of 0.3 to 3 µM.
Still for that read-out and setting: with `COc1ccc([C@@H]2CNC[C@H]2Nc2nc(-c3cc(F)ccc3O)nc3ccccc23)cc1` (relative stereo) [Compound A-090, 4-Fluoro-2-(4-(trans-4-(4-methoxyphenyl)pyrrolidin-3-ylamino)quinazolin-2-yl)phenol] the figure was at most 0.3 µM.
Still for that read-out and setting: next, `COc1cccc([C@@H]2CNC[C@H]2Nc2nc(-c3cc(F)ccc3O)nc3ccccc23)c1` (relative stereo) [Compound A-091, 4-Fluoro-2-(4-(trans-4-(3-methoxyphenyl)pyrrolidin-3-ylamino)quinazolin-2-yl)phenol]: at most 0.3 µM.
On to `COc1ccccc1[C@@H]1CNC[C@H]1Nc1nc(-c2cc(F)ccc2O)nc2ccccc12` (relative stereo) [Compound A-092, 4-Fluoro-2-(4-trans(4-(2-methoxyphenyl)pyrrolidin-3-ylamino)quinazolin-2-yl)phenol], for which the IC50 (following further studies) lay in the range of 0.3 to 3 µM.
As to `C[C@@H]1CNC[C@H]1Nc1nc(-c2cc(F)ccc2O)nc2ccccc12` (relative stereo) [Compound A-099, 4-Fluoro-2-(4-(trans-4-methylpyrrolidin-3-ylamino)quinazolin-2-yl)phenol], the IC50 (following further studies) is at most 0.3 µM.
Consider `N[C@@H]1CCCC[C@@H]1Nc1nc(-c2ccccc2O)nc2ccccc12` (relative stereo) [Compound B-002], for which the IC50 runs as follows: (first set of tested compounds) 3 to 30 µM; (following further studies) 3 to 30 µM and 3.8 µM.
With `N[C@@H]1CCCC[C@H]1Nc1nc(-c2ccccc2O)nc2ccccc12` (relative stereo) [Compound B-003, 2-[4-(trans-2-Aminocyclohexylamino)-quinazolin-2-yl]-phenol], the IC50 (first set of tested compounds) is below 3 µM and the IC50 (following further studies) was in the range of 0.3 to 3 µM.
Consider `CN1CCCC(Nc2nc(-c3ccccc3O)nc3ccccc23)C1` (stereo not drawn) [Compound A-001, 2-[4-(1-Methyl-piperidin-3-yl-amino)-quinazolin-2-yl]-phenol], for which the IC50 was below 3 µM (first set of tested compounds); 0.3 to 3 µM and 1.6 µM (following further studies).
In the case of `CN1CCC(Nc2nc(-c3ccccc3O)nc3ccccc23)CC1` [Compound A-003, 2-[4-(1-Methylpiperidin-4-ylamino)-quinazolin-2-yl]-phenol], the IC50 was below 3 µM (first set of tested compounds) and 0.3 to 3 µM (following further studies).
`CN1CCC[C@H](Nc2nc(-c3ccccc3O)nc3ccccc23)C1` [Compound A-007, 2-[4-((S)-1-Methylpiperidin-3-ylamino)-quinazolin-2-yl]-phenol]: the IC50 runs as follows: (first set of tested compounds) 3 to 30 µM; (following further studies) 3 to 30 µM.
In the case of `CN1CCC[C@@H](Nc2nc(-c3ccccc3O)nc3ccccc23)C1` [Compound A-008, 2-[4-((R)-1-Methylpiperidin-3-ylamino)-quinazolin-2-yl]-phenol], the IC50 (first set of tested compounds) is below 3 µM and the IC50 (following further studies) is 0.3 to 3 µM.
Consider `Oc1ccccc1-c1nc(N[C@H]2CCN(Cc3ccccc3)C2)c2ccccc2n1` [Compound A-011, 2-[4-((S)-1-Benzylpyrrolidin-3-ylamino)-quinazolin-2-yl]-phenol], for which the IC50 lay in the range of 3 to 30 µM (first set of tested compounds) and 3 to 30 µM (following further studies).
With `Oc1ccc(Cl)cc1-c1nc(N[C@@H]2CCCNC2)c2ccccc2n1` [Compound A-013, (R)-4-Chloro-2-(4-(piperidin-3-ylamino)quinazolin-2-yl)phenol], the IC50 by setting is: (first set of tested compounds) below 3 µM; (following further studies) at most 0.3 µM.
The matching figures for `Oc1ccc(F)cc1-c1nc(N[C@@H]2CCCNC2)c2ccccc2n1` [Compound A-014, (R)-4-Fluoro-2-(4-(piperidin-3-ylamino)quinazolin-2-yl)phenol]: below 3 µM and at most 0.3 µM.
The matching figures for `Oc1ccccc1-c1nc(N[C@H]2CCNC2)c2cc(Br)ccc2n1` [Compound A-016, (S)-2-(6-Bromo-4-(pyrrolidin-3-ylamino)quinazolin-2-yl)phenol]: below 3 µM and 0.3 to 3 µM.
Take `Oc1ccccc1-c1nc(N[C@H]2CCNC2)c2ccc(-c3ccccc3)cc2n1` [Compound A-020, (S)-2-(7-phenyl-4-(pyrrolidinyl-3-ylamino)quinazolin-2-yl)phenol]: the IC50 by setting is: (first set of tested compounds) below 3 µM; (following further studies) 0.3 to 3 µM.
Take `CC(C)(C)c1ccc(O)c(-c2nc(N[C@H]3CCNC3)c3ccccc3n2)c1` [Compound A-022, (S)-4-tert-Butyl-2-(4-(pyrrolidin-3-ylamino)quinazolin-2-yl)phenol]: the IC50 (first set of tested compounds) is 3 to 30 µM and the IC50 (following further studies) fell in the range of 3 to 30 µM.
Regarding `Oc1ccccc1-c1nc(N[C@H]2CCNC2)c2cc(-c3ccccc3)ccc2n1` [Compound A-025, (S)-2-(6-Phenyl-4-(pyrrolidinyl-3-ylamino)quinazolin-2-yl)phenol], the IC50 was 3 to 30 µM (first set of tested compounds) and 3 to 30 µM (following further studies).
Turning to `COC(=O)[C@H]1C[C@H](Nc2nc(-c3cc(Cl)ccc3O)nc3ccccc23)CN1` [Compound A-026, (2R,4S)-Methyl 4-(2-(5-chloro-2-hydroxyphenyl)quinazolin-4-ylamino)pyrrolidine-2-carboxylate], the IC50 (first set of tested compounds) was below 3 µM and the IC50 (following further studies) was at most 0.3 µM.
For `Oc1ccccc1-c1nc(N[C@H]2CCNC2)c2ccc(-c3ccc(CN4CCOCC4)cc3)cc2n1` [Compound A-027, (S)-2-(7-(4-(Morpholinomethyl)phenyl)-4-(pyrrolidin-3-ylamino)quinazolin-2-yl)phenol], the IC50 runs as follows: (first set of tested compounds) below 3 µM; (following further studies) at most 0.3 µM.
`Oc1ccccc1-c1nc(N[C@H]2CCNC2)c2cc(-c3ccc(CN4CCOCC4)cc3)ccc2n1` [Compound A-028, (S)-2-(6-(4-(Morpholinomethyl)phenyl)-4-(pyrrolidin-3-ylamino)quinazolin-2-yl)phenol]: the IC50 (first set of tested compounds) was below 3 µM and the IC50 (following further studies) was in the range of 0.3 to 3 µM.
As to `Oc1ccccc1-c1nc(N[C@H]2CCNC2)c2cc(-c3cn[nH]c3)ccc2n1` [Compound A-029, (S)-2-(6-(1H-Pyrazol-4-yl)-4-(pyrrolidin-3-ylamino)quinazolin-2-yl)phenol], the IC50 reads like this: (first set of tested compounds) below 3 µM; (following further studies) 0.3 to 3 µM.
The matching figures for `O=C(NCc1ccccc1)[C@H]1C[C@H](Nc2nc(-c3ccccc3O)nc3ccccc23)CN1` [Compound A-031, (2R,4S)-N-Benzyl-4-(2-(2-hydroxyphenyl)quinazolin-4-ylamino)pyrrolidine-2-carboxamide]: below 3 µM and 0.3 to 3 µM.
Turning to `CNC(=O)[C@H]1C[C@H](Nc2nc(-c3ccccc3O)nc3ccccc23)CN1` [Compound A-032, (2R,4S)-4-(2-(2-Hydroxyphenyl)quinazolin-4-ylamino)-N-methylpyrrolidine-2-carboxamide], the IC50 (first set of tested compounds) was below 3 µM and the IC50 (following further studies) fell in the range of 0.3 to 3 µM.
Take `COC(=O)c1ccc(O)c(-c2nc(N[C@H]3CCNC3)c3ccccc3n2)c1` [Compound A-033, (S)-Methyl 4-hydroxy-3-(4-(pyrrolidin-3-ylamino)quinazolin-2-yl)benzoate]: the IC50 runs as follows: (first set of tested compounds) below 3 µM; (following further studies) at most 0.3 µM.
Regarding `O=C([C@H]1C[C@H](Nc2nc(-c3ccccc3O)nc3ccccc23)CN1)N1CCCC1` [Compound A-034, ((2R,4S)-4-(2-(2-Hydroxyphenyl)quinazolin-4-ylamino)pyrrolidin-2-yl)(pyrrolidin-1-yl)methanone], the IC50 (first set of tested compounds) is below 3 µM and the IC50 (following further studies) is at most 0.3 µM.
The matching figures for `O=C([C@H]1C[C@H](Nc2nc(-c3ccccc3O)nc3ccccc23)CN1)N1CCNCC1` [Compound A-035, ((2R,4S)-4-(2-(2-Hydroxyphenyl)quinazolin-4-ylamino)pyrrolidin-2-yl)(piperazin-1-yl)methanone]: below 3 µM and 0.3 to 3 µM.
For `CN1CCN(C(=O)[C@H]2C[C@H](Nc3nc(-c4ccccc4O)nc4ccccc34)CN2)CC1` [Compound A-036, ((2R,4S)-4-(2-(2-Hydroxyphenyl)quinazolin-4-ylamino)pyrrolidin-2-yl)(4-methylpiperazin-1-yl)methanone], the IC50 is below 3 µM (first set of tested compounds) and 0.3 to 3 µM (following further studies).
Take `O=C([C@H]1C[C@H](Nc2nc(-c3ccccc3O)nc3ccccc23)CN1)N1CCCCC1` [Compound A-037, ((2R,4S)-4-(2-(2-Hydroxyphenyl)quinazolin-4-ylamino)pyrrolidin-2-yl)(piperidin-1-yl)methanone]: the IC50 reads like this: (first set of tested compounds) below 3 µM; (following further studies) at most 0.3 µM.
On to `O=C([C@H]1C[C@H](Nc2nc(-c3ccccc3O)nc3ccccc23)CN1)N1CCOCC1` [Compound A-038, ((2R,4S)-4-(2-(2-Hydroxyphenyl)quinazolin-4-ylamino)pyrrolidin-2-yl)(morpholino)methanone], for which the IC50 was below 3 µM (first set of tested compounds) and at most 0.3 µM (following further studies).
The matching figures for `O=C(Nc1ccccc1)[C@H]1C[C@H](Nc2nc(-c3ccccc3O)nc3ccccc23)CN1` [Compound A-039, (2R,4S)-4-(2-(2-Hydroxyphenyl)quinazolin-4-ylamino)-N-phenylpyrrolidine-2-carboxamide]: below 3 µM and 0.3 to 3 µM.
`Oc1ccc(Br)cc1-c1nc(N[C@H]2CCNC2)c2ccccc2n1` [Compound A-041, (S)-4-Bromo-2-(4-(pyrrolidin-3-ylamino)quinazolin-2-yl)phenol]: the IC50 by setting is: (first set of tested compounds) below 3 µM; (following further studies) at most 0.3 µM.
On to `CN(c1nc(-c2cc(F)ccc2O)nc2ccccc12)[C@H]1CCNC1` [Compound A-043, (S)-4-Fluoro-2-(4-(methyl(pyrrolidin-3-yl)amino)quinazolin-2-yl)phenol], for which the IC50 (first set of tested compounds) was below 3 µM and the IC50 (following further studies) is at most 0.3 µM.

Source of the values: US8324226B2, “Therapeutic oxy-phenyl-aryl compounds and their use” (Cancer Research Technology Limited, priority 2007, dated 2012).
